How the values were obtained:
[1] = tested on: A549 human non-small cell lung tumor cells; assay: SRB (sulforhodamine B) assay, antiproliferative activity, A549; type: cell-based
Experimental: (§1) Anticancer activities of the inclusion compounds synthesized in Synthesis Examples 1 and 2 were measured as follows.
(§2) First, the oxaliplatin-cucurbitu[7]ril inclusion compounds synthesized in Synthesis Examples 1 and 2, were freeze-dried to prepare samples. Tumor cells used were A 549 (human non-small cell lung), SKOV-3 (human ovarian), SKMEL-2 (human melanoma), XF498 (human CNS), and HCT-15 (human colon), and analyzed by SRB (sulforhodamine B) assay.

[2] = tested on: SKOV-3 human ovarian tumor cells; assay: SRB (sulforhodamine B) assay, antiproliferative activity, SKOV-3; type: cell-based
Experimental: as §1, §2

[3] = tested on: SKMEL-2 human melanoma tumor cells; assay: SRB (sulforhodamine B) assay, antiproliferative activity, SKMEL-2; type: cell-based
Experimental: as §1, §2

[4] = tested on: XF-498 human CNS tumor cells; assay: SRB (sulforhodamine B) assay, antiproliferative activity, XF-498; type: cell-based
Experimental: as §1, §2

[5] = tested on: HCT-15 human colon tumor cells; assay: SRB (sulforhodamine B) assay, antiproliferative activity, HCT-15; type: cell-based
Experimental: as §1, §2

[6] = Isothermal microcalorimeter titration of oxaliplatin and cucurbitu[7]ril; type: physicochemical; conditions: 25° C., 20 mM oxaliplatin, 1 mM cucurbitu[7]ril

SMILES	Antiproliferative activity (ED50/μM) [1] [µM]	Antiproliferative activity (ED50/μM) [2] [µM]	Antiproliferative activity (ED50/μM) [3] [µM]	Antiproliferative activity (ED50/μM) [4] [µM]	Antiproliferative activity (ED50/μM) [5] [µM]	binding constant [6]	binding enthalpy [6] [kcal/mol]
N[C@@H]1CCCC[C@H]1N.O=C([O-])C(=O)[O-].[Pt+2] (relative stereo) [Oxaliplatin, (trans-L-diaminocyclohexane)oxalatoplatinum (II)]	0.42	0.67	0.97	0.49	0.90	2.39×10^5(±0.4) M^−1	-6.33
N.N.[Cl][Pt][Cl] [Cisplatin]	1.17	2.87	3.08	0.46	1.32		

Reference: patent US7459471B2, “Inclusion compound comprising cucurbituril derivatives as host molecule and pharmaceutical composition comprising the same” (Postech Foundation, priority 2001, dated 2008)
